# “And” between values parts separate entries of the source, which are not always exact repeats. Identical values can stand only once.
# What was measured:
# pp60^c-src [1] = target: T1, pp60^c-src (Homo sapiens, UniProt P12931); conditions: literature value; read-out: IC50 (μM), Lit; cited from earlier work
# Target sequence in this assay (P12931 whole entry, species assumed): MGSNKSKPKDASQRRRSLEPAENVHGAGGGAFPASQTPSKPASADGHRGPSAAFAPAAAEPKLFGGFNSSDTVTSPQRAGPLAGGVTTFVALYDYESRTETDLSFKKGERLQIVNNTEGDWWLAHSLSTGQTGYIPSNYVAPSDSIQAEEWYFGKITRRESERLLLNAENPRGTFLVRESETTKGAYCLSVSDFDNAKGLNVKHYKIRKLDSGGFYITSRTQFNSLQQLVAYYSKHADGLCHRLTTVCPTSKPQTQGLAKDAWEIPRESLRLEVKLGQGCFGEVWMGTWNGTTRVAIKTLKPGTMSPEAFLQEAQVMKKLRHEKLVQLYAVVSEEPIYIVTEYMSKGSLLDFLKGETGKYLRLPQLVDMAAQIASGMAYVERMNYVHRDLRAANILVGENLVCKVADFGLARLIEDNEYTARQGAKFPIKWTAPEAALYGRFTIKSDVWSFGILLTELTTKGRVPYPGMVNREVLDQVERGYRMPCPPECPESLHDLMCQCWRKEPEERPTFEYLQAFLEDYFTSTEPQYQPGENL
# pp60^c-src [2] = target: T1, pp60^c-src; assay: Src inhibition (RR-SRC phosphorylation), Cellular Mimetic assay; conditions: inhibitor 100 μM; Table IX
# Target sequence in this assay (P12931 whole entry): as the sequence (P12931 whole entry, species assumed) above
# Chinchillas [3] = assay: Noise-induced hearing loss, round window application (Example 8); assay type: in vivo, chinchilla; parameters: threshold shift, 0.5 kHz / threshold shift, 1 kHz / threshold shift, 2 kHz / threshold shift, 4 kHz / threshold shift, 8 kHz / average threshold shift, 0.5 kHz / average threshold shift, 1 kHz / average threshold shift, 2 kHz / average threshold shift, 4 kHz / average threshold shift, 8 kHz: unit not given here; conditions: for average threshold shift, 0.5 kHz / average threshold shift, 1 kHz / average threshold shift, 2 kHz / average threshold shift, 4 kHz / average threshold shift, 8 kHz: Table XIV; for threshold shift, 0.5 kHz / threshold shift, 1 kHz / threshold shift, 2 kHz / threshold shift, 4 kHz / threshold shift, 8 kHz: individual animals, listed as CH65
# Experimental: Chinchillas (N=8) were used in studies of noise-induced hearing loss. The animals' hearing sensitivity was measured using standard electrophysical techniques before the experimental manipulation. […] Animals were anesthetized, the auditory bullae were opened, and the left and right cochleas were visualized. The round window leading to the scala tympani of the cochlea was used as the access point for drug application. […] In each case, the solution was allowed to set on the round window for 30 minutes, then the auditory bullae were closed. Subsequently, the animals were exposed to 4 kHz band noise at 105 dB SPL for four hours. Following the noise exposure, the animals' hearing was tested at day 1, day 3, day 7, and day 20 to determine evoked potential threshold shifts. Permanent threshold shift was assessed at day 20. The cochleas were harvested at day 20 to allow for morphological examination of the cochleas.
# Chinchillas [4] = assay: Noise-induced hearing loss, round window application (Example 12); assay type: in vivo, chinchilla; conditions: 4 kHz band noise at 105 dB SPL, four hours, day 1, 7, 21
# Experimental: Chinchillas (N=6) were used in studies of noise-induced hearing loss. The animals' hearing sensitivity was measured using standard electrophysical techniques before the experimental manipulation. […] Animals were anesthetized, the auditory bullae were opened, and the left and right cochleas were visualized. The round window leading to the scala tympani of the cochlea was used as the access point for drug application. […] A control solution of 3 mM DMSO in […] of saline solution was placed on the round window of the other ear. The solution was allowed to set on the round window for 30 minutes, then the auditory bullae were closed. Subsequently, the animals were exposed to 4 kHz band noise at 105 dB SPL for four hours. Following the noise exposure, the animals' hearing was tested at day 1, day 7, and day 21 to determine evoked potential threshold shifts. Permanent threshold shift was assessed at day 21.
# Guinea pigs = assay: Cisplatin-induced hearing loss; assay type: in vivo, guinea pig; conditions: subcutaneous, prior to cisplatin
# Experimental: The effects of high level noise and ototoxic drugs, such as cisplatin or the class of aminoglycosides, share several common features in the inner ear. First, the noise and/or drugs alter the free radical/antioxidant levels in the cochlea (inner ear). […] Guinea pigs (N=7) were used in studies of cisplatin-induced hearing loss. The animals' hearing sensitivity was measured using standard electrophysical techniques before the experimental manipulation. […] Animals were anesthetized and treated with cisplatin. Subsequently, the animals' hearing was tested to determine evoked potential threshold shifts.
# Animals were treated subcutaneously with KX1-004 prior to the cisplatin-induced hearing loss.
smiles,measurement,setting,value
"CCOc1cc(/C=C(\C#N)C(N)=O)cc(CSc2ccccc2)c1O [ST-638, reference compound]",IC50,pp60^c-src [1],18 µM
same,% Inhibition at 100 μM (std. dev.),pp60^c-src [2],37 (+/−5) %
O=C(NCc1cccc(O)c1)c1cc2cc(F)ccc2[nH]1 [KX1-004],"average threshold shift, 0.5 kHz",Chinchillas [3]; Day 1,3.75
same,"average threshold shift, 1 kHz",Chinchillas [3]; Day 1,6.875
same,"average threshold shift, 2 kHz",Chinchillas [3]; Day 1,25
same,"average threshold shift, 4 kHz",Chinchillas [3]; Day 1,42
same,"average threshold shift, 8 kHz",Chinchillas [3]; Day 1,22.5
same,"threshold shift, 0.5 kHz",Chinchillas [3]; Day 1,0 (2×) and 5 and 10
same,"threshold shift, 1 kHz",Chinchillas [3]; Day 1,2.5 and 20 and 0 and 5
same,"threshold shift, 2 kHz",Chinchillas [3]; Day 1,0 and 25 and 20 and 55
same,"threshold shift, 4 kHz",Chinchillas [3]; Day 1,10 and 35 and 68 and 55
same,"threshold shift, 8 kHz",Chinchillas [3]; Day 1,0 and 30 and 35 and 25
same,"average threshold shift, 0.5 kHz",Chinchillas [3]; Day 3,5.4
same,"average threshold shift, 1 kHz",Chinchillas [3]; Day 3,6.9
same,"average threshold shift, 2 kHz",Chinchillas [3]; Day 3,18
same,"average threshold shift, 4 kHz",Chinchillas [3]; Day 3,27
same,"average threshold shift, 8 kHz",Chinchillas [3]; Day 3,15
same,"threshold shift, 0.5 kHz",Chinchillas [3]; Day 3,5 (3×) and 0 and 12
same,"threshold shift, 1 kHz",Chinchillas [3]; Day 3,7.5 and 5 and 2 and 0 and 20
same,"threshold shift, 2 kHz",Chinchillas [3]; Day 3,0 (2×) and 15 and 40 and 35
same,"threshold shift, 4 kHz",Chinchillas [3]; Day 3,10 and 0 and 25 and 55 and 45
same,"threshold shift, 8 kHz",Chinchillas [3]; Day 3,0 (2×) and 15 (2×) and 45
same,"average threshold shift, 0.5 kHz",Chinchillas [3]; Day 7,8
same,"average threshold shift, 1 kHz",Chinchillas [3]; Day 7,6
same,"average threshold shift, 2 kHz",Chinchillas [3]; Day 7,15
same,"average threshold shift, 4 kHz",Chinchillas [3]; Day 7,24
same,"average threshold shift, 8 kHz",Chinchillas [3]; Day 7,18
same,"threshold shift, 0.5 kHz",Chinchillas [3]; Day 7,0 and 5 and 8 and 15 and 12
same,"threshold shift, 1 kHz",Chinchillas [3]; Day 7,0 (3×) and 15 (2×)
same,"threshold shift, 2 kHz",Chinchillas [3]; Day 7,0 (2×) and 15 and 40 and 20
same,"threshold shift, 4 kHz",Chinchillas [3]; Day 7,0 and 5 and 15 and 55 and 45
same,"threshold shift, 8 kHz",Chinchillas [3]; Day 7,0 (2×) and 20 and 30 and 40
same,"average threshold shift, 0.5 kHz",Chinchillas [3]; Day 20,3
same,"average threshold shift, 1 kHz",Chinchillas [3]; Day 20,1.25
same,"average threshold shift, 2 kHz",Chinchillas [3]; Day 20,6.25
same,"average threshold shift, 4 kHz",Chinchillas [3]; Day 20,9
same,"average threshold shift, 8 kHz",Chinchillas [3]; Day 20,3.75
same,"threshold shift, 0.5 kHz",Chinchillas [3]; Day 20,0 (2×) and 5 and 7
same,"threshold shift, 1 kHz",Chinchillas [3]; Day 20,0 (3×) and 5
same,"threshold shift, 2 kHz",Chinchillas [3]; Day 20,0 (2×) and 15 and 10
same,"threshold shift, 4 kHz",Chinchillas [3]; Day 20,0 (2×) and 11 and 25
same,"threshold shift, 8 kHz",Chinchillas [3]; Day 20,−5 and 5 and 0 and 15
same,"average threshold shift, 0.5 kHz",Chinchillas [3]; Pretest,26.6
same,"average threshold shift, 1 kHz",Chinchillas [3]; Pretest,24.5
same,"average threshold shift, 2 kHz",Chinchillas [3]; Pretest,20
same,"average threshold shift, 4 kHz",Chinchillas [3]; Pretest,12.4
same,"average threshold shift, 8 kHz",Chinchillas [3]; Pretest,4
same,"threshold shift, 0.5 kHz",Chinchillas [3]; Pretest,30 and 35 and 25 and 20 and 23
same,"threshold shift, 1 kHz",Chinchillas [3]; Pretest,22.5 and 25 (4×)
same,"threshold shift, 2 kHz",Chinchillas [3]; Pretest,25 (3×) and 10 and 15
same,"threshold shift, 4 kHz",Chinchillas [3]; Pretest,20 and 10 and 12 and 5 and 15
same,"threshold shift, 8 kHz",Chinchillas [3]; Pretest,10 (2×) and 0 (3×)
same,protection against the noise exposure,"Chinchillas [3]; in vivo, listed as CH-65",provided protection against the noise exposure
same,"average dB threshold shifts, treated ears versus control",Chinchillas [4],lower
same,protection against cisplatin-induced hearing loss,Guinea pigs,protected against ciplatin-induced hearing loss

# — patent publication US7838542B2, “Bicyclic compositions and methods for modulating a kinase cascade” (Kinex Pharmaceuticals, LLC, priority 2006, dated 2010)
